Results published in paper PMC8951040, “Determination of Flavonoids in Selected Scleranthus Species and Their Anti-Collagenase and Antioxidant Potential” (Molecules, 2022).
Values joined by “and” are separate entries in the source; they are usually repeats but may differ in a detail not shown here. Identical values can stand only once.

Assays:
[1] = DPPH radical scavenging assay; details: 30 min incubation, absorbance 517 nm; mean ± SD, triplicate
Method: Individual test compounds and extracts in methanol (130 µL) were added to 70 µL of a solution of DPPH (2,2-diphenyl-1-picrylhydrazyl). After 30 min of incubation, the absorbance was evaluated at 517 nm. The determination was performed in triplicate and corrected to a blank sample (pure methanol). The radical scavenging activity of the tested samples was expressed as Trolox equivalents, calculated from the standard curve.

[2] = ABTS radical cation assay (antioxidant assay kit CS0790); details: 5 min incubation, absorbance 405 nm; mean ± SD, triplicate
Method: Suppression of the production of the radical cation was measured using an antioxidant assay kit (CS0790). In brief, 10 µL of the test sample, 20 µL of myoglobin working solution, and 150 µL of ABTS working solution (containing ABTS substrate solution and 3% hydrogen peroxide) were mixed into a clear, flat-bottom 96-well plate. After 5 min of incubation, 100 µL of stop solution was added and absorbance was measured at 405 nm. The antioxidant concentration of tested samples was calculated using the equation obtained through linear regression of the Trolox standard curve.

[3] = CUPRAC assay (antioxidant assay kit MAK334); details: 10 min incubation, absorbance 570 nm; mean ± SD, triplicate
Method: The reducing power of copper ions was evaluated using an antioxidant assay kit (MAK334). Briefly, 20 µL of sample and 100 µL of reaction mix were added into separate wells in a 96-well plate. After 10 min of incubation, the absorbance endpoint was measured at 570 nm. Total antioxidant capacity was determined using a standard curve evaluated for Trolox.

[4] = biological target: collagenase from Clostridium histolyticum; experiment: Anti-collagenase assay (FALGPA substrate); type: biochemical; details: 20 min at 37 °C, absorbance 335 nm, mean ± SD, triplicate
Method: The potential anti-collagenase activity was assessed as previously described. In short, a solution including 25 µL of collagenase from Clostridium histolyticum, 25 µL of Tricine buffer, and 25 µL of various levels of the extracts (SP1–SP6, SA1–SA6) or compounds (6–9) were incubated at 37 °C. After 20 min, 75 µL of FALGPA was added. Then, absorbance was measured at 335 nm. The experiment was performed in 50 mM Tris buffer. The blank was evaluated using Tricine buffer, instead of sample, and the positive control was epigallocatechin gallate (EGCG). All measurements were conducted in triplicate and the IC50 for each sample was calculated. The percentage of collagenase inhibitory activity (CoInh) was calculated as follows:Enzyme inhibition activity (%) = [1 − (B/S)] × 100%, where B is the blank and S is the sample.

[5] = FRAP ferric reducing antioxidant power assay kit; details: 1 h at 37 °C, absorbance 594 nm; mean ± SD, triplicate
Method: The […] of the investigated substances toward ferrous ions was assessed using a ferric reducing antioxidant power assay kit. Briefly, 10 µL of each sample (SP1–SP6, SA1–SA6, 1–9) was mixed with 190 µL of supplied reaction mix (containing FRAP Assay Buffer, FeCl3 solution, and FRAP Probe). After 1 h of incubation at 37 °C, the absorbance was measured at 594 nm. A blank solution containing 10 µL of MeOH instead of extract/compound solution was used. For further calculations, the ferrous standard curve was evaluated. Values are given as mM Ferrous equivalents. All tests were performed in triplicate.

Compound	DPPH (radical scavenging activity, Trolox equivalents) [1] [µM Teq]	ABTS (radical scavenging activity, Trolox equivalents) [2] [µM Teq]	CUPRAC (Trolox equivalents) [3]	IC50 [4] [µM]	melting point [°C]	FRAP (Fe2+ equivalents) [5] [mM Fe2+ equivalents]
COc1ccc(C(C)=O)c(O[C@@H]2O[C@H](CO[C@@H]3OC[C@](O)(CO)[C@H]3O)[C@@H](O)[C@H](O)[C@H]2O)c1 [Compound 5, Apiopaeonoside]	61.96 ± 1.90	444.23 ± 0.47	48.46 ± 1.75 µM Teq	–	–	–
COc1cc(-c2cc(=O)c3c(O)cc(O)c(C4OCC(O)C(O)C4OC4OC(CO)C(OC(C)=O)C(O)C4O)c3o2)ccc1OC(C)=O [Compound 6, 5,7-dihydroxy-3′-methoxy-4′-acetoxyflavone-8-C-β-D-arabinopyranoside-2″-O-(4‴-acetoxy)-glucoside]	6.69 ± 0.97	169.27 ± 1.68	18.57 µM Teq and 18.57 ± 0.76 µM Teq	39.6 ± 1.21	187 to 188	–
O=c1cc(-c2ccc(O)c(O)c2)oc2c(C3OC(CO)C(O)C(O)C3O)c(O)c(C3OCC(O)C(O)C3O)c(O)c12 [Compound 7, 5,7,3′,4′-tetrahydroxyflavone-6-C-xyloside-8-C-β-D-glucoside]	409.16 ± 2.03	796.61 ± 1.23	116.16 µM Teq and 116.16 ± 0.76 µM Teq	73.9 ± 1.03	–	–
O=c1cc(-c2cccc(O)c2)oc2c(C3OC(CO)C(O)C(O)C3O)c(O)c(C3OC(CO)C(O)C(O)C3O)c(O)c12 [Compound 8, 5,7,3′-trihydroxyflavone-6-C-glucoside-8-C-β-D-glucoside]	176.71 ± 0.97	369.24 ± 3.05	27.15 ± 1.32 µM Teq	53.4 ± 0.88	–	5.16 ± 0.96
COc1cc(-c2cc(=O)c3c(O)c(C4OC(CO)C(O)C(O)C4O)c(O)c(C4OCC(O)C(O)C4O)c3o2)ccc1O [Compound 9, 5,7,4′-trihydroxy-3′-methoxyflavone-6-C-β-D-glucopyranoside-8-C-α-arabinopyranoside]	407.05 ± 1.83	586.69 ± 2.91	18.20 ± 0.76 µM Teq	71.1 ± 0.97	–	9.07 ± 0.45
O=C(O[C@@H]1Cc2c(O)cc(O)cc2O[C@@H]1c1cc(O)c(O)c(O)c1)c1cc(O)c(O)c(O)c1 [EGCG, epigallocatechin gallate, reference compound]	–	–	–	34.8 ± 0.53	–	–
scleranthoside A [Compound 1]	405.15 ± 3.12	765.16 ± 2.83	581.32 µM Teq and 581.32 ± 3.61 µM Teq	–	–	–
scleranthoside B [Compound 2]	198.43 ± 2.40	188.57 ± 1.86	114.56 ± 2.04 µM Teq	–	–	5.68 ± 0.68
scleranthoside C [Compound 3]	7.11 ± 0.59	198.57 ± 2.46	67.30 µM Teq and 67.30 ± 1.30 µM Teq	–	–	–
scleranthoside D [Compound 4]	9.64 ± 0.82	302.05 ± 2.42	44.22 ± 1.35 µM Teq	–	–	2.65 ± 0.47
